The source of these data is a melting point compilation (Tetko et al.; mined from patent text by program, amines drawn as free bases though some values may be those of a salt).

Each structure is given as a SMILES string. Some results are limits rather than exact numbers.

Take `CCCC(C)(Oc1ccccc1C)C(=O)OC1CC(O)C=C2C=CC(C)C(CCC3CC(O)CC(=O)O3)C21` (mixture of isomers): the melting point – broadly, the temperature, or range, at which the solid turns liquid – is 161 to 163 °C.

Consider `N#Cc1ccc(O[C@H]2CC[C@H](NC(=O)Nc3ccc(OC(F)(F)F)cc3)CC2)cc1`, for which the melting point was in the range of 186 to 189 °C.

In the case of `CCCCCC(=O)Nc1c(C)c(C)c2c(c1C)C(c1ccc(C)cc1)C(C)(C)O2` (stereo not drawn), the melting point lay within 96 to 97 °C.

Compound `O=c1ccc2c(-n3cnc(CO)c3)nccc2[nH]1` came in with a melting point of 259 to 261 °C.

As for `Cc1nc(NC(=O)Nc2ccc(Cl)cc2)sc1C(=O)NCc1ccccc1`, the melting point was over 300 °C.

Turning to `CC(=O)Oc1ccc2c(c1)CCC1C2CCC2(C)C(OS(C)(=O)=O)CCC12` (stereo not drawn), the melting point lay in the range of 120 to 122 °C.

`Cc1nc2n(C)ncn2c(=O)c1CCO`: the melting point is 215 °C.

Consider `Cc1c(C(=O)Nc2ccc(SCCCN3CCCCC3)c(C#N)c2)cnn1-c1ccc(Cl)cc1`, for which the melting point turned out to be 142 °C.

As to `CCOCCc1c(O)n2c3c(=O)n(C)c(=O)n(C)c3nc2n(Cc2ccccc2)c1=O`, the melting point was in the range of 156 to 158 °C.

For the compound `N#Cc1ccc(C=NO)c(Cl)c1`, the melting point was 177 to 179 °C.

The compound `CC1CCN(c2cc3nc(C(C)(C)C)sc3cc2NC(=S)Oc2ccccc2)CC1` came in with a melting point of 201 to 205 °C.

`Nc1nc2c(s1)CCN(CC=Cc1ccccc1)CC2` displayed a melting point of 120 to 124 °C.

Take `CC(C)CC1(C)C(=O)N(Cc2ccccc2)CCN1Cc1ccccc1` (stereo not drawn): the melting point is 98 to 101 °C.

`CN(C)C1CCC(Nc2ncnc3sc4c(c23)CCC4)CC1` (stereo not drawn): the melting point fell in the range of 97 to 98 °C.

With `Cc1nc2ccsc2c2ccccc12`, the melting point was 74 to 76 °C.

Turning to `Cc1cc(Cl)c(N2C(=O)Cc3cc(C)ccc32)c(Cl)c1`, the melting point was in the range of 153 to 154 °C.

In turn, `Cn1cc(C(=O)OCC23CCCN(CC2)C3)c2ccccc21` (stereo not drawn) returned a melting point of 94.5 to 96.5 °C.

On to `COc1ccc2nc(Cl)c(Cl)nc2c1`, for which the melting point lay within 156 to 159 °C.

`CCNC(=O)C1CC(=O)N(Cc2ccccc2)C1` (stereo not drawn) had a melting point of 97 to 99 °C.

`COC(=O)c1ccc(-c2nc(-c3ccc(C(C)(C)C)cc3)no2)c(N)c1` yielded a melting point of 195 to 196 °C.

In turn, `COc1ccc(-c2c3c(c(O)c4cc(OC)c(OC)c(OC)c24)C(=O)CCC3)cc1OC` returned a melting point of 164 to 166 °C.

`COC(=O)c1[nH]c2c(C)ccc(C)c2c1C=O` gave a melting point of 174 to 175 °C.

Compound `CC1OC(C)C(C(=O)O)C1=O` (stereo not drawn) showed a melting point of 55 to 57 °C.

With `COc1cccc2c1C13CCN(C)C(C2)C1CCC(=O)C3` (single isomer, unassigned; (-)), the melting point is 145 to 147 °C.

In the case of `COC(=O)c1cc2nc(C)oc2cc1C(=O)OC`, the melting point fell in the range of 121 to 124 °C.

In turn, `CCCc1nc2c(N)nc3cc(OCCN(CCOc4ccc5c(c4)nc(N)c4nc(CCC)sc45)C(N)=O)ccc3c2s1` showed a melting point of 213 to 216 °C.

The compound `FC(F)(F)c1ccc(-c2cc(C(F)(F)F)n3cnc(-c4ccncc4)c3n2)cc1` displayed a melting point of 240 °C.

`O=c1c2c(nc3c(O)cccn13)CCC2` registered a melting point of 136 to 142 °C.

The compound `CC(=O)OCC1C=CC(n2cc(F)c(N)nc2=O)O1` (stereo not drawn) yielded a melting point of 182 to 184 °C.

As to `COc1cc(C(=O)N2CCN(C(=O)OC(C)(C)C)C(C(=O)O)C2)cc(OC)c1OC` (stereo not drawn), the melting point was 188 to 190 °C.

For `C#Cc1cccc(Oc2ccc([N+](=O)[O-])c([N+](=O)[O-])c2)c1`, the melting point was in the range of 68 to 69 °C.

Turning to `O=C(OCCN1CCOC1=O)c1ccccc1Nc1ccnc2c(C(F)(F)F)cccc12`, the melting point lay within 158 to 160 °C.

In turn, `CC(=O)NCC1CN(Cc2ccccc2)CCO1` (stereo not drawn) came in with a melting point of 110 to 111 °C.

`CC(O)COc1cccc(N)c1C(N)=O` (stereo not drawn) yielded a melting point of 115 to 118 °C.

`CCCCN(CCCOc1ccc(S(=O)(=O)c2c(C(C)C)cn3ccccc23)cc1)C(C)c1ccc(OC)c(OC)c1` (stereo not drawn): the melting point lay in the range of 108 to 110 °C.

`CCCCCC(=O)c1ccc(OCc2ccc3ccccc3n2)cc1` came in with a melting point of 78 to 80 °C.

On to `O=S1NC(CC2=Cc3ccccc3CC2)=NO1` (stereo not drawn), for which the melting point was 118 to 120 °C.

For the compound `COC(=O)N=C1SCCN1Cc1ccc(Cl)nc1`, the melting point was 128 to 130 °C.

Compound `CCN1CCc2ccc(Nc3ncc([N+](=O)[O-])c(Nc4ccccc4C(=O)NC)n3)cc2CC1` had a melting point of 222 to 225 °C.

Compound `CN1CC(c2cc(OCc3ccccc3)ncn2)=C(O)C1=O` registered a melting point of 203 to 204 °C.

With `O=C(O)Cc1cc(C(=O)c2cccc(Cl)c2)ccc1O`, the melting point turned out to be 186 °C.

In turn, `CC(=O)OC1CSC(Oc2ccnc(-c3ccc(F)cc3C)c2)C(OC(C)=O)C1OC(C)=O` (stereo not drawn) yielded a melting point of 137 °C.

For the compound `COc1cc2c(cc1OC)N(C(=O)c1ccc(-c3ccccc3OC)c(C)c1)Cc1ccc(C(=O)N(C)CC(O)C(O)C(O)C(O)CO)n1C2` (stereo not drawn), the melting point lay within 110 to 120 °C.

Compound `CCCc1c(C(O)C(C)C)c2ccc(C#N)cc2n1Cc1ccccc1Cl` (stereo not drawn) came in with a melting point of 126 to 127 °C.

Consider `COc1ccc(/C=C(\C#N)c2ccc3ccccc3c2)cc1OC1CCCC1`, for which the melting point is 147 to 148 °C.

In turn, `Nc1cc(CCC(=O)NC23CC4CC(CC(C4)C2)C3)ccc1O` showed a melting point of 79 to 80 °C.

In turn, `CCCC(=O)c1cnc2c(OC)cccc2c1Cl` displayed a melting point of 114 to 116 °C.

`Nc1ncnc2c1ncn2C1CC(=CF)C(O)C1O` (stereo not drawn) came in with a melting point of 167 to 169 °C.

In turn, `CC(=O)C(Cl)=NNc1ccccc1` yielded a melting point of 132 to 134 °C.

For the compound `CCOC(=O)c1cn(C2CCCCC2)c2cc(Br)ccc2c1=O`, the melting point is 129 to 133 °C.

Regarding `CC(=O)c1cn(C)c2ccc(F)cc12`, the melting point was 158 to 160 °C.

With `O[C@H]1CC[C@H](Nc2nccc(-n3nnc4ccccc43)n2)CC1`, the melting point is 225 to 228 °C.

As for `CC(C)(C)OC(=O)N1CCN(Cc2ccc(Cl)c(Cl)c2)CC1`, the melting point lay in the range of 75 to 76 °C.

As to `Cc1c(S(=O)(=O)c2ccc(=O)[nH]n2)oc2cc(Cl)ccc12`, the melting point was over 240 °C.

For the compound `COc1ccccc1[C@@H]1O[C@@H](CC(=O)O)C(=O)N(CC(C)(C)C)c2ccc(Cl)cc21`, the melting point lay in the range of 179 to 183 °C.

In the case of `CC#CCCCn1ncc2c(N)c3c(nc21)CN(CCC)C3=O`, the melting point lay within 168 to 170 °C.

As for `O=C(O)C1CCCN1S(=O)(=O)c1ccc(F)cc1` (stereo not drawn), the melting point lay in the range of 145 to 148 °C.

`COc1ccc([C@@H]2Cc3cc(OC)ccc3NC(=O)[C@@H]2O)cc1` showed a melting point of 171 to 173 °C.

On to `Nc1ccc(SCC2CCC2)cc1[N+](=O)[O-]`, for which the melting point fell in the range of 49 to 53 °C.

`C=CCNC1=NS(=O)(=O)c2sc(Cl)cc2N1`: the melting point lay within 217 to 221 °C.

`CN1C2CCC1CN(c1ccc(-c3cccs3)nn1)C2` returned a melting point of 156 °C.

As for `COC(=O)C1=C(C)NC(C)=C(C(=O)OCCc2cc(C)[nH]c2C)C1c1cccc([N+](=O)[O-])c1` (stereo not drawn), the melting point is 156 to 160 °C.

Compound `CC(C)CC(CO)NC(=O)c1ccccc1SSc1ccccc1C(=O)NC(CO)CC(C)C` (stereo not drawn) displayed a melting point of 195 to 196 °C.

`CCCc1c(C(=O)NCc2ccc3c(Br)c(OCC#N)ccc3c2)cnn1-c1ccccc1` came in with a melting point of 175 to 176 °C.

The compound `CN1CCCC1c1ccc(Nc2cc(-c3cc(F)cc(N4CCc5c(sc6c5CCCC6)C4=O)c3CO)cn(C)c2=O)nc1` (stereo not drawn) showed a melting point of 164 to 166 °C.

On to `COc1ccc(OC)c2[nH]c(-c3ccc(Cl)cc3)nc12`, for which the melting point lay within 274 to 276 °C.

`Cc1nc(-n2cnn(CCO)c2=O)sc1C(=O)NCc1cccnc1` showed a melting point of 201 to 202 °C.

For `Cc1cnc(-c2ccc(C(F)(F)F)cc2)n1C`, the melting point was found to be 130 °C.

With `CNC(=NS(=O)(=O)N1CCCCC1)N1CC(c2ccccc2)C(c2ccc(Cl)cc2)=N1` (stereo not drawn), the melting point fell in the range of 175 to 177 °C.

`C#CCN1C(=O)CCc2cc(Cl)cc(Cl)c21` displayed a melting point of 92 to 95 °C.

`O=C(NC(Cc1ccc(OCc2ccccc2)cc1)C(=O)O)c1cn2c(-c3ccc(Cl)cc3)cccc2n1` (stereo not drawn): the melting point was determined as 218 °C.

Turning to `O[C@@H]1CN(CCc2ccccc2)CC[C@H]1c1ccccc1` (relative stereo), the melting point lay in the range of 115 to 119 °C.

Compound `O=C(NCCCCN1CCC(c2ccc3c(c2OCCO)CCCC3)CC1)c1sc(-c2ccc(C(F)(F)F)cc2)nc1CO` came in with a melting point of 157 to 159 °C.

Compound `CCCC(=O)Nc1cccc(-c2cccc(OC)c2)c1` came in with a melting point of 90 to 91 °C.

`COc1cc2c(cc1NCc1ccccc1)ncc1c(N)nc(-c3cccnc3)cc12` displayed a melting point of 251 to 258 °C.

The compound `COC1(c2cc(F)cc(Sc3ccc(NC(C)=O)cc3)c2)CCN(CC(F)(F)F)C1` (stereo not drawn) gave a melting point of 127 to 129 °C.

For `O=C(O)C=CCNCS(=O)(=O)c1ccc([N+](=O)[O-])cc1[N+](=O)[O-]`, the melting point amounted to 174 °C.

The compound `CC(C)(C)[Si](OCCOc1ccc([N+](=O)[O-])cn1)(c1ccccc1)c1ccccc1` showed a melting point of 63 to 64 °C.

Regarding `CCc1nc2c(N)nc3cc(CCCNC(=O)NC(C)C)ccc3c2n1CC1CCOCC1`, the melting point lay within 213 to 216 °C.

Take `CC(C)(C)OC(=O)NC(CO)C(c1ccccc1)c1ccccc1` (stereo not drawn): the melting point is 95 to 96 °C.

As to `COC(=O)C1=C(C)N(CCOC(=O)c2ccccc2)C(=O)NC1c1ccc2ccccc2c1` (stereo not drawn), the melting point was 116 °C.

`O=C1CC(C(=O)OCc2ccccc2)C(=O)C(Cc2ccccc2)N1` (stereo not drawn) yielded a melting point of 119 to 120 °C.

Consider `CC1(C)C(C=CC(=O)O)C1C(=O)OC(C#N)c1ccc(F)c(Oc2ccccc2)c1` (stereo not drawn), for which the melting point is 99 °C.

Turning to `CC(=O)Nc1ccc2c(c1)cc(C(=O)c1ccc(F)cc1)n2C`, the melting point was in the range of 213 to 215 °C.

As to `CCC(n1cncn1)C(O)(Cn1cncn1)c1ccc(Cl)cc1` (stereo not drawn), the melting point lay in the range of 168 to 169 °C.

The compound `Cc1cc(CCCOc2c(C)cc(-c3noc(=N)[nH]3)cc2C)on1` gave a melting point of 175 to 183 °C.

In turn, `N#CC(NCc1cccnc1)c1ccoc1` (stereo not drawn) registered a melting point of 80 to 82 °C.

Compound `N#Cc1ccc(CC23CCCN2C(=O)N(c2cc(Cl)cc(Cl)c2N)C3=O)cc1` (stereo not drawn) had a melting point of 122 °C.
